According to ChEMBL document CHEMBL1201862, “PubChem BioAssay data set” (2004):
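Test compounds were applied to cells in 96-well plates for 48 hours at 5 doses. At the GI50, growth is halved.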 The source made the active and inactive calls. No stated cut-off is given here; in the data, active = GI50 up to about 1.1 µM and inactive = higher.

How the values were obtained:
Experiment in all cases: NCI tumour cell line growth inhibition, 48 h
MDA-MB-231 = tested on: MDA-MB-231
Malme-3M = tested on: Malme-3M
U-251 = tested on: U-251
UACC-257 = tested on: UACC-257
EKVX = tested on: EKVX
UACC-62 = tested on: UACC-62
SK-MEL-2 = tested on: SK-MEL-2
A498 = tested on: A498
NCI-H522 = tested on: NCI-H522
MOLT-4 = tested on: MOLT-4
Hs-578T = tested on: Hs-578T
SK-OV-3 = tested on: SK-OV-3
HOP-62 = tested on: HOP-62
RXF 393 = tested on: RXF 393
ACHN = tested on: ACHN
OVCAR-3 = tested on: OVCAR-3
UO-31 = tested on: UO-31
SF-539 = tested on: SF-539
NCI-H226 = tested on: NCI-H226
SNB-19 = tested on: SNB-19
MCF7 = tested on: MCF7
SF-268 = tested on: SF-268
DU-145 = tested on: DU-145
HCT-15 = tested on: HCT-15
KM12 = tested on: KM12
BT-549 = tested on: BT-549
HT-29 = tested on: HT-29
OVCAR-5 = tested on: OVCAR-5
T47D = tested on: T47D
SR = tested on: SR
IGROV-1 = tested on: IGROV-1
PC-3 = tested on: PC-3
SK-MEL-28 = tested on: SK-MEL-28
SNB-75 = tested on: SNB-75
TK-10 = tested on: TK-10
M14 = tested on: M14
K562 = tested on: K562
NCI-H460 = tested on: NCI-H460
OVCAR-4 = tested on: OVCAR-4
COLO 205 = tested on: COLO 205
NCI-H23 = tested on: NCI-H23
HCC 2998 = tested on: HCC 2998
HL-60 = tested on: HL-60
SF-295 = tested on: SF-295
HCT-116 = tested on: HCT-116
CCRF-CEM = tested on: CCRF-CEM
LOX IMVI = tested on: LOX IMVI
SW-620 = tested on: SW-620
SK-MEL-5 = tested on: SK-MEL-5
OVCAR-8 = tested on: OVCAR-8
NCI/ADR-RES = tested on: NCI/ADR-RES
SN12C = tested on: SN12C
MDA-MB-435 = tested on: MDA-MB-435
A549 = tested on: A549
MDA-N = tested on: MDA-N
786-0 = tested on: 786-0
RPMI-8226 = tested on: RPMI-8226
CAKI-1 = tested on: CAKI-1

For `CCn1c(SCC(=O)NNC(=S)Nc2ccc(C)cc2)nc2ccccc2c1=O`, the GI50 (MDA-MB-231) was > 100 µM (inactive), the GI50 (Malme-3M) was > 100 µM (inactive) and the GI50 (U-251) was > 100 µM (inactive). The GI50 (UACC-257) was > 100 µM (inactive), the GI50 (EKVX) was > 100 µM (inactive) and the GI50 (UACC-62) was > 100 µM (inactive). For the same compound, the GI50 (SK-MEL-2) was > 100 µM (inactive), the GI50 (A498) was > 100 µM (inactive) and the GI50 (NCI-H522) was > 100 µM (inactive). For the same compound, the GI50 (MOLT-4) was 27.1 µM (inactive), the GI50 (Hs-578T) was > 100 µM (inactive) and the GI50 (SK-OV-3) was > 100 µM (inactive). The GI50 (HOP-62) was > 100 µM (inactive), the GI50 (RXF 393) was > 100 µM (inactive) and the GI50 (ACHN) was > 100 µM (inactive). For the same compound, the GI50 (OVCAR-3) was > 100 µM (inactive), the GI50 (UO-31) was 22 µM (inactive) and the GI50 (SF-539) was > 100 µM (inactive). For the same compound, the GI50 (NCI-H226) was > 100 µM (inactive), the GI50 (SNB-19) was > 100 µM (inactive) and the GI50 (MCF7) was > 100 µM (inactive). For the same compound, the GI50 (SF-268) was 57.3 µM (inactive), the GI50 (DU-145) was > 100 µM (inactive) and the GI50 (HCT-15) was greater than 100 µM. The GI50 (KM12) was > 100 µM (inactive), the GI50 (BT-549) was > 100 µM (inactive) and the GI50 (HT-29) was > 100 µM (inactive). For the same compound, the GI50 (OVCAR-5) was > 100 µM (inactive), the GI50 (T47D) was 65.5 µM (inactive) and the GI50 (SR) was 40.6 µM (inactive). For the same compound, the GI50 (IGROV-1) was > 100 µM (inactive), the GI50 (PC-3) was > 100 µM (inactive) and the GI50 (SK-MEL-28) was > 100 µM (inactive). The GI50 (SNB-75) was > 100 µM (inactive), the GI50 (TK-10) was 85.5 µM (inactive) and the GI50 (M14) was > 100 µM (inactive). The GI50 (K562) was 51.9 µM (inactive), the GI50 (NCI-H460) was 1.6 µM (inactive) and the GI50 (OVCAR-4) was 78.9 µM (inactive). The GI50 (COLO 205) was > 100 µM (inactive), the GI50 (NCI-H23) was > 100 µM (inactive) and the GI50 (HCC 2998) was > 100 µM (inactive). For the same compound, the GI50 (HL-60) was > 100 µM (inactive), the GI50 (SF-295) was > 100 µM (inactive) and the GI50 (HCT-116) was > 100 µM (inactive). The GI50 (CCRF-CEM) was > 100 µM (inactive), the GI50 (LOX IMVI) was > 100 µM (inactive) and the GI50 (SW-620) was > 100 µM (inactive). The GI50 (SK-MEL-5) was > 100 µM (inactive), the GI50 (OVCAR-8) was > 100 µM (inactive) and the GI50 (NCI/ADR-RES) was > 100 µM (inactive). The GI50 (SN12C) was > 100 µM (inactive), the GI50 (MDA-MB-435) was > 100 µM (inactive) and the GI50 (A549) was > 100 µM (inactive). For the same compound, the GI50 (MDA-N) was > 100 µM (inactive), the GI50 (786-0) was > 100 µM (inactive) and the GI50 (RPMI-8226) was 70.1 µM (inactive).
`NC(=O)c1nnc2c(F)cccc2c1N` was tested, and the GI50 (MDA-MB-231) was > 100 µM (inactive), the GI50 (Malme-3M) was > 100 µM (inactive) and the GI50 (U-251) was > 100 µM (inactive). For the same compound, the GI50 (UACC-257) was > 100 µM (inactive), the GI50 (EKVX) was > 100 µM (inactive) and the GI50 (UACC-62) was 73.8 µM (inactive). The GI50 (SK-MEL-2) was > 100 µM (inactive), the GI50 (A498) was > 100 µM (inactive) and the GI50 (NCI-H522) was 21.9 µM (inactive). For the same compound, the GI50 (MOLT-4) was > 100 µM (inactive), the GI50 (Hs-578T) was > 100 µM (inactive) and the GI50 (SK-OV-3) was 45.2 µM (inactive). For the same compound, the GI50 (HOP-62) was > 100 µM (inactive), the GI50 (CAKI-1) was > 100 µM (inactive) and the GI50 (ACHN) was > 100 µM (inactive). The GI50 (OVCAR-3) was > 100 µM (inactive), the GI50 (UO-31) was 56 µM (inactive) and the GI50 (SF-539) was > 100 µM (inactive). The GI50 (NCI-H226) was 46.6 µM (inactive), the GI50 (SNB-19) was > 100 µM (inactive) and the GI50 (MCF7) was 40 µM (inactive). The GI50 (SF-268) was > 100 µM (inactive), the GI50 (DU-145) was > 100 µM (inactive) and the GI50 (HCT-15) was 92 µM. The GI50 (KM12) was > 100 µM (inactive), the GI50 (BT-549) was 58.9 µM (inactive) and the GI50 (HT-29) was > 100 µM (inactive). For the same compound, the GI50 (OVCAR-5) was > 100 µM (inactive), the GI50 (T47D) was > 100 µM (inactive) and the GI50 (SR) was > 100 µM (inactive). For the same compound, the GI50 (IGROV-1) was > 100 µM (inactive), the GI50 (PC-3) was > 100 µM (inactive) and the GI50 (SNB-75) was > 100 µM (inactive). For the same compound, the GI50 (TK-10) was > 100 µM (inactive), the GI50 (M14) was > 100 µM (inactive) and the GI50 (K562) was 55.1 µM (inactive). For the same compound, the GI50 (NCI-H460) was 72.1 µM (inactive), the GI50 (OVCAR-4) was > 100 µM (inactive) and the GI50 (COLO 205) was 73.3 µM (inactive). The GI50 (NCI-H23) was > 100 µM (inactive), the GI50 (HCC 2998) was 93.1 µM (inactive) and the GI50 (HL-60) was > 100 µM (inactive). The GI50 (SF-295) was > 100 µM (inactive), the GI50 (HCT-116) was 64.4 µM (inactive) and the GI50 (CCRF-CEM) was 28.7 µM (inactive). For the same compound, the GI50 (LOX IMVI) was 52 µM (inactive), the GI50 (SW-620) was 27.4 µM (inactive) and the GI50 (SK-MEL-5) was > 100 µM (inactive). The GI50 (OVCAR-8) was > 100 µM (inactive), the GI50 (NCI/ADR-RES) was > 100 µM (inactive) and the GI50 (SN12C) was > 100 µM (inactive). The GI50 (MDA-MB-435) was 77.3 µM (inactive), the GI50 (A549) was 84.5 µM (inactive) and the GI50 (MDA-N) was 66.5 µM (inactive). For the same compound, the GI50 (786-0) was > 100 µM (inactive) and the GI50 (RPMI-8226) was > 100 µM (inactive).
